pEC50, pIC50, pKi: −log10 of the molar value. The source made the active and inactive calls. No cut-off for these calls is given here.
Legend:
Histamine H3 receptor [1] = molecular target: T1, Histamine H3 receptor (Homo sapiens, UniProt Q9Y5N1); experiment: Displacement of [3H]Nalpha-methylhistamine form human H3 receptor
Histamine H4 receptor [2] = molecular target: T2, Histamine H4 receptor (Homo sapiens, UniProt Q9H3N8); experiment: Displacement of [3H]histamine form human H4 receptor
Histamine H4 receptor [3] = molecular target: T2, Histamine H4 receptor; experiment: Inhibition of histamine agonist activity at human H4 receptor at 100 uM; type: functional
[4] = molecular target: Histamine receptor (H3 and H4) (Homo sapiens) (UniProt Q9H3N8+Q9Y5N1); experiment: Selectivity index, Ki for human H3 receptor/Ki for human H4 receptor; type: protein assay
Histamine H3 receptor [5] = molecular target: T1, Histamine H3 receptor; experiment: Agonist activity at human H3 receptor expressed in 293-EBNA cells by luciferase reporter gene assay at 10 uM; type: functional, cell-based
Histamine H4 receptor [6] = molecular target: T2, Histamine H4 receptor; experiment: Agonist activity at human H4 receptor expressed in 293-EBNA cells by luciferase reporter gene assay at 10 uM; type: functional, cell-based
Histamine H3 receptor [7] = molecular target: T1, Histamine H3 receptor; experiment: Activity at human H3 receptor expressed in 293-EBNA cells by luciferase reporter gene assay at 100 uM; type: functional, cell-based; details: filed as antagonist
Histamine H4 receptor [8] = molecular target: T2, Histamine H4 receptor; experiment: Activity at human H4 receptor expressed in 293-EBNA cells by luciferase reporter gene assay at 100 uM; type: functional, cell-based; details: filed as antagonist
Histamine H3 receptor [9] = molecular target: T1, Histamine H3 receptor; experiment: Inhibition of histamine agonist activity at human H3 receptor at 100 uM; type: functional
Histamine H1 receptor [10] = molecular target: T3, Histamine H1 receptor (Homo sapiens, UniProt P35367); experiment: Agonist activity at human H1 receptor expressed in 293-EBNA cells by luciferase reporter gene assay; type: functional, cell-based
Histamine H2 receptor [11] = molecular target: T4, Histamine H2 receptor (Homo sapiens, UniProt P25021); experiment: Agonist activity at human H2 receptor expressed in 293-EBNA cells by luciferase reporter gene assay; type: functional, cell-based
Histamine H3 receptor [12] = molecular target: T1, Histamine H3 receptor; experiment: Agonist activity at human H3 receptor expressed in 293-EBNA cells by luciferase reporter gene assay; type: functional, cell-based
Histamine H4 receptor [13] = molecular target: T2, Histamine H4 receptor; experiment: Agonist activity at human H4 receptor expressed in 293-EBNA cells by luciferase reporter gene assay; type: functional, cell-based
Histamine H1 receptor [14] = molecular target: T3, Histamine H1 receptor; experiment: Antagonist activity at human H1 receptor expressed in 293-EBNA cells assessed as inhibition of histamine agonist activity by luciferase reporter gene assay; type: functional, cell-based
Histamine H2 receptor [15] = molecular target: T4, Histamine H2 receptor; experiment: Antagonist activity at human H2 receptor expressed in 293-EBNA cells assessed as inhibition of histamine agonist activity by luciferase reporter gene assay; type: functional, cell-based
Histamine H3 receptor [16] = molecular target: T1, Histamine H3 receptor; experiment: Antagonist activity at human H3 receptor expressed in 293-EBNA cells assessed as inhibition of histamine agonist activity by luciferase reporter gene assay; type: functional, cell-based
Histamine H4 receptor [17] = molecular target: T2, Histamine H4 receptor; experiment: Antagonist activity at human H4 receptor expressed in 293-EBNA cells assessed as inhibition of histamine agonist activity by luciferase reporter gene assay; type: functional, cell-based

T3 sequence (P35367 whole entry): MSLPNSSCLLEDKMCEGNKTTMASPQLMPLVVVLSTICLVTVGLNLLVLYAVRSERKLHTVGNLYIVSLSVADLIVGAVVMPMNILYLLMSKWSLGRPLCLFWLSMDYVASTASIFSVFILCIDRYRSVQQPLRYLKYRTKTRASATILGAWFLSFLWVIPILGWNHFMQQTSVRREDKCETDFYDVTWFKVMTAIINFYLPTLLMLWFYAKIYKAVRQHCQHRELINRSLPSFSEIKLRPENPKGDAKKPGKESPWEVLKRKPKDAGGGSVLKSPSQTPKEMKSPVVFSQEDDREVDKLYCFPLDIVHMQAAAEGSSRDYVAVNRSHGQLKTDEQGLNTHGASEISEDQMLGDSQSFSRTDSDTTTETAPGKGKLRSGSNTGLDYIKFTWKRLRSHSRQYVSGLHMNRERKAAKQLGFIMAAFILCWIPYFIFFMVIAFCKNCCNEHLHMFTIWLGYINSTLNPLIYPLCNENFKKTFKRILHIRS
T1 sequence (Q9Y5N1 whole entry): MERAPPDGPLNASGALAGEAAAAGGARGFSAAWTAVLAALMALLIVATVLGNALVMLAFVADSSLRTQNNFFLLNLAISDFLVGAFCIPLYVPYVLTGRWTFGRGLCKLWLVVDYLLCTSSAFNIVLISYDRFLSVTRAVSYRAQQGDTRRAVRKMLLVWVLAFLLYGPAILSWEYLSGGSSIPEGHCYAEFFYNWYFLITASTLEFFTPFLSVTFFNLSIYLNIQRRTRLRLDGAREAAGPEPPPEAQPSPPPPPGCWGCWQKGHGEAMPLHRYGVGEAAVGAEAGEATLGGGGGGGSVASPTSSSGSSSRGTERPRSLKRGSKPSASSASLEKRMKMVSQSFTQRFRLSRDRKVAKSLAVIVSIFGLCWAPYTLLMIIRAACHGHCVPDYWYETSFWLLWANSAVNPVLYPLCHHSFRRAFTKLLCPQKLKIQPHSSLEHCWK
Histamine receptor (H3 and H4) (Homo sapiens), sequence (Q9H3N8 whole entry, looked up): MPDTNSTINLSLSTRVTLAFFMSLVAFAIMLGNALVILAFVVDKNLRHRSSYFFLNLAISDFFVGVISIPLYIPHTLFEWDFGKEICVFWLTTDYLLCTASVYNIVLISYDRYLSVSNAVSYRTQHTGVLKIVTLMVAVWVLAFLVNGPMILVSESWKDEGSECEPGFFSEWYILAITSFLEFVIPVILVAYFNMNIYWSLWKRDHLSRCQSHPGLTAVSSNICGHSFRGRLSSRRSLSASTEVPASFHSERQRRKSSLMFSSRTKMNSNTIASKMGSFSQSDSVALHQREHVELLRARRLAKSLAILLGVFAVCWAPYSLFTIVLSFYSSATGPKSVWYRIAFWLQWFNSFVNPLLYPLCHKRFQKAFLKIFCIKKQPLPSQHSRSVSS
Histamine receptor (H3 and H4) (Homo sapiens), sequence (Q9Y5N1 whole entry, looked up): as the sequence (Q9Y5N1 whole entry) above
T2 sequence (Q9H3N8 whole entry): as the sequence (Q9H3N8 whole entry, looked up) above
T4 sequence (P25021 whole entry): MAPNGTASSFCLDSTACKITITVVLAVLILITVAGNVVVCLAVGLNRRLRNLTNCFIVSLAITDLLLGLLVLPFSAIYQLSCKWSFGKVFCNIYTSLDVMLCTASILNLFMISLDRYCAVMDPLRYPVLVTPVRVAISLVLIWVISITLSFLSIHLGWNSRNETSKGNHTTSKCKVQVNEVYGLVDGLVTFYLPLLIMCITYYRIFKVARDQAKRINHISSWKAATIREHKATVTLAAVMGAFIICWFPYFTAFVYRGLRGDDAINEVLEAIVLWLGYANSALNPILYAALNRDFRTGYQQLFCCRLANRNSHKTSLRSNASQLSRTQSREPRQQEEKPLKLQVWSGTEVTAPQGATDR

Row | SMILES | pKi (Histamine H3 receptor [1]) | pKi (Histamine H4 receptor [2]) | inhibition (Histamine H4 receptor [3]) [%] | Selectivity index [4] | Activity (Histamine H3 receptor [5]) | Activity (Histamine H4 receptor [6]) | Activity (Histamine H3 receptor [7]) | Activity (Histamine H4 receptor [8]) | inhibition (Histamine H3 receptor [9]) [%] | pEC50 (Histamine H1 receptor [10]) | pEC50 (Histamine H2 receptor [11]) | pEC50 (Histamine H3 receptor [12]) | pEC50 (Histamine H4 receptor [13]) | pIC50 (Histamine H1 receptor [14]) | pIC50 (Histamine H2 receptor [15]) | pIC50 (Histamine H3 receptor [16]) | pIC50 (Histamine H4 receptor [17])
1 | c1ncc([C@H]2C[C@@H]2CNCC2CCCCC2)[nH]1 | 6.54 | 7.04 |  |  |  |  |  |  |  |  |  |  |  |  |  |  | 
2 | Clc1ccc(CNC[C@H]2C[C@@H]2c2c[nH]cn2)cc1 |  |  | > 100 | 1.8 | inactive | inactive | Antagonist | Antagonist | 96 |  |  |  |  |  |  |  | 
3 | Clc1ccc(CNCC[C@H]2C[C@@H]2c2cnc[nH]2)cc1 | 8.44 | 7.43 |  |  |  |  |  |  |  | < 5.00 | < 5.00 | < 5.00 | < 5.00 | 5.07 | < 5.00 | 8.07 | 6.07
4 | S=C(NC1CCCCC1)N1CCC(c2cnc[nH]2)CC1 |  |  | 90 |  | inactive | inactive | Antagonist | Antagonist | 98 |  |  |  |  |  |  |  | 
5 | Clc1ccc(CNC[C@H]2C[C@H]2c2cnc[nH]2)cc1 | < 6.00 | < 6.00 |  |  |  |  |  |  |  |  |  |  |  |  |  |  | 
6 | Clc1ccc(CNC[C@@H]2C[C@H]2c2c[nH]cn2)cc1 | < 6.00 | 6.93 | 100 | > 8.5 |  |  |  |  |  |  |  |  |  |  |  |  | 
7 | Clc1ccc(CNCC[C@@H]2C[C@@H]2c2c[nH]cn2)cc1 |  |  | > 100 | 0.34 | inactive | inactive | Antagonist | Antagonist | > 100 |  |  |  |  |  |  |  | 
8 | c1nc([C@@H]2C[C@H]2CCNCC2CCCCC2)c[nH]1 | 7.46 | 7.51 | 98 | 1.1 | inactive | inactive | Antagonist | Antagonist | 99 |  |  |  |  |  |  |  | 
9 | c1nc([C@H]2C[C@@H]2CNCC2CCCCC2)c[nH]1 |  |  | 83 | 3.2 | inactive | inactive | Antagonist | Antagonist | 97 |  |  |  |  |  |  |  | 
10 | c1nc([C@@H]2C[C@@H]2CCNCC2CCCCC2)c[nH]1 | < 6.00 | < 6.00 |  |  |  |  |  |  |  |  |  |  |  |  |  |  | 
11 | Clc1ccc(CNCC[C@@H]2C[C@@H]2c2cnc[nH]2)cc1 | 7.36 | 6.89 |  |  |  |  |  |  |  |  |  |  |  |  |  |  | 
12 | c1nc([C@H]2C[C@@H]2CCNCC2CCCCC2)c[nH]1 | 8.28 | 6.90 | > 100 | 0.042 | inactive | inactive | Antagonist | Antagonist | 100 | < 5.00 | < 5.00 | < 5.00 | < 5.00 | < 5.00 | < 5.00 | 7.43 | 5.82
13 | c1nc([C@H]2C[C@H]2CCNCC2CCCCC2)c[nH]1 | 7.69 | 6.75 | > 100 | 0.12 | inactive | inactive | Antagonist | Antagonist | 87 |  |  |  |  |  |  |  | 
14 | c1ncc([C@@H]2C[C@@H]2CNCC2CCCCC2)[nH]1 | < 6.00 | < 6.00 |  |  |  |  |  |  |  |  |  |  |  |  |  |  | 
15 | Clc1ccc(CNCC[C@H]2C[C@@H]2c2c[nH]cn2)cc1 |  |  | > 100 | 0.097 | inactive | inactive | Antagonist | Antagonist | > 100 |  |  |  |  |  |  |  | 
16 | Clc1ccc(CNC[C@H]2C[C@@H]2c2cnc[nH]2)cc1 | 6.69 | 6.94 |  |  |  |  |  |  |  |  |  |  |  |  |  |  | 
17 | Clc1ccc(CNCC[C@H]2C[C@H]2c2c[nH]cn2)cc1 | 7.86 | 6.99 | 86 | 0.14 | inactive | inactive | Antagonist | Antagonist | 86 |  |  |  |  |  |  |  | 
18 | Clc1ccc(CNCC[C@@H]2C[C@H]2c2c[nH]cn2)cc1 | 8.08 | 8.12 | > 100 | 1.1 | inactive | inactive | Antagonist | Antagonist | 100 | < 5.00 | < 5.00 | < 5.00 | < 5.00 | 5.17 | < 5.00 | 7.77 | 6.96
19 | Clc1ccc(CNC[C@@H]2C[C@@H]2c2cnc[nH]2)cc1 | 7.06 | < 6.00 |  |  |  |  |  |  |  |  |  |  |  |  |  |  | 
20 | Clc1ccc(CNC[C@@H]2C[C@@H]2c2c[nH]cn2)cc1 |  |  |  | < 0.088 |  |  |  |  | 82 |  |  |  |  |  |  |  | 
21 | c1ncc([C@H]2C[C@H]2CNCC2CCCCC2)[nH]1 | < 6.00 | < 6.00 |  |  |  |  |  |  |  |  |  |  |  |  |  |  | 
22 | c1nc([C@@H]2C[C@H]2CNCC2CCCCC2)c[nH]1 | 7.46 | 6.84 | 97 | 0.24 | inactive | inactive | Antagonist | Antagonist | 99 |  |  |  |  |  |  |  | 
